Consider four compounds from patent US10919937B2, “Bicyclic peptide ligands and uses thereof” (BicycleTx Limited, priority 2018, dated 2021).

*1 amine or outer side, *2 acyl side, *3 side chain or, on linkers, in order; H or OH if unused. Where a SMILES comes first, the peptide text is derived from it. Bridges are numbered along the chain shown (N, C = ends). [ ]: non-standard residue; d: D form. X11 = O=C(C[*:1])N1CCN(c2ccc(-c3nc(-c4ccc(N5CCN(C(=O)C[*:2])CC5)cc4)nc(-c4ccc(N5CCN(C(=O)C[*:3])CC5)cc4)n3)cc2)CC1; X7 = O=C(c1ccc(C[*:1])cc1)N1CN(C(=O)c2ccc(C[*:2])cc2)CN(C(=O)c2ccc(C[*:3])cc2)C1 Some results are limits rather than exact numbers.

Test [1] deals with T1, EphA2 (Homo sapiens, UniProt P29317).
T1 construct: purchased
Kind of test: EphA2 SPR Assay. As to conditions: n = 2. Type of test: binding. As for the experimental part: SPR Measurements: Non-Fc fusion proteins were biotinylated with EZ-Link™ Sulfo-NHS-LC-Biotin for 1 hour in 4 mM sodium acetate, 100 mM NaCl, pH 5.4 with a 3× molar excess of biotin over protein. The degree of labelling was determined using a Fluorescence Biotin QuantificationKit (Thermo) after dialysis of the reaction mixture into PBS. For analysis of peptide binding, a Biacore T200 10 instrument was used utilising a XanTec CMD500D chip. Streptavidin was immobilized on the chip using standard amine-coupling chemistry at 25° C. with HBS—N (10 mM HEPES, 0.15 M NaCl, pH 7.4) as the running buffer. Briefly, the carboxymethyl dextran surface was activated with a 7 min injection of a 1:1 ratio of 0.4 M 1-ethyl-3-(3-dimethylaminopropyl) carbodiimide hydrochloride (EDC)/0.1 M N-hydroxy succinimide (NHS) at a flow rate of 10 μl/min. For capture of streptavidin, the protein was diluted to 0.2 mg/ml in 10 mM sodium acetate (pH 4.5) and captured by injecting 120 μl onto the activated chip surface. Residual activated groups were blocked with a 7 min injection of 1 M ethanolamine (pH 8.5):HBS—N (1:1). Buffer was changed to PBS/0.05% Tween 20 and biotinylated EphA2 was captured to a level of 500-1500 RU using a dilution of protein to 0.2 μM in buffer. […]

Test [2] has as its target MT1-MMP (Homo sapiens, UniProt P50281). As to conditions: bicyclic peptide formed with TBMB scaffold; MT1-MMP binder; cited from earlier work.
Test [3] deals with CAIX (Homo sapiens, UniProt Q16790). As to conditions: bicyclic peptide formed with TBMB scaffold; CAIX binder; cited from earlier work.

T1 sequence (P29317 24-976, species assumed): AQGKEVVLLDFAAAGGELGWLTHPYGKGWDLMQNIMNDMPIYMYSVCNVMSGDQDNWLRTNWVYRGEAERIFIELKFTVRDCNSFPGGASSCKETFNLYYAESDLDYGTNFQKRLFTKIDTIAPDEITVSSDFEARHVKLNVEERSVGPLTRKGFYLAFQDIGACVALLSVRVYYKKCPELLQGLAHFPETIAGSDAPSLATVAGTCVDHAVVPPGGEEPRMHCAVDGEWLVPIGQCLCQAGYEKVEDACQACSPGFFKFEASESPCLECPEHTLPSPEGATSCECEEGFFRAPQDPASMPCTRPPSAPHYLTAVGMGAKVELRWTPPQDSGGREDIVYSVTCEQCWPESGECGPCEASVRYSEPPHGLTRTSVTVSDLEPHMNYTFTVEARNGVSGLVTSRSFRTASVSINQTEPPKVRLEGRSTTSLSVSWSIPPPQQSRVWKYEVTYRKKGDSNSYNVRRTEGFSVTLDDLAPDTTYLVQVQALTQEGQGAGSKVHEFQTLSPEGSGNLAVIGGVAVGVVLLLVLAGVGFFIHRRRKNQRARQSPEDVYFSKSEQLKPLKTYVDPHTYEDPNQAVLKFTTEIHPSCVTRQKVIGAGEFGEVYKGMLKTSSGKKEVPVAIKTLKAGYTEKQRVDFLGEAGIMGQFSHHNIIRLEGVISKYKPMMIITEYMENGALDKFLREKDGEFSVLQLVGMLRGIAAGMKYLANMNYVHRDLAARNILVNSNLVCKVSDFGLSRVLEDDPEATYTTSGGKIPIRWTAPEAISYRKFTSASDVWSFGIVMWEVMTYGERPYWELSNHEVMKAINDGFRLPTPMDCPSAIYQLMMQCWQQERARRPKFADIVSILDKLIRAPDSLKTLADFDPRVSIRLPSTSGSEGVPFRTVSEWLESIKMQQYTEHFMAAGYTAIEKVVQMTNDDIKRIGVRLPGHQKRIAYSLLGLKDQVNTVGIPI

As usually defined, the Kd is a measure of binding affinity in units of concentration. In turn, `CC(C)[C@H](NC(=O)[C@H](CC(=O)O)NC(=O)[C@H](C)N)C(=O)N[C@@H](Cc1cnc[nH]1)C(=O)N[C@H]1CSCC(=O)N2CCN(CC2)c2ccc(cc2)-c2nc3nc(n2)-c2ccc(cc2)N2CCN(CC2)C(=O)CSC[C@H](NC(=O)[C@H](Cc2c[nH]c4ccccc24)NC(=O)[C@H](Cc2ccccc2)NC(=O)[C@H]2CCCN2C(=O)CNC(=O)[C@H](Cc2c[nH]c4ccccc24)NC(=O)[C@@H]2CCCN2C1=O)C(=O)N1CCC[C@H]1C(=O)N[C@@H](C(C)C)C(=O)N[C@H](CC(N)=O)C(=O)N[C@H](CCCNC(=N)N)C(=O)N1CCC[C@@H]1C(=O)NCC(=O)N[C@H](C(=O)N[C@@H](C)C(=O)O)CSCC(=O)N1CCN(CC1)c1ccc-3cc1` [I-104] (H-ADVHCPWG[dP]FWCPV[dN][dR][dP]GCA-OH; linker 5-12-19 via X11) returned a Kd in test [1] of less than 500 nM.

With “βAla-Sar10-A-C(D-Ala)NE(1Nal)(D-Ala)CEDFYD(tBuGLy)C (AXACANEXACEDFYDGC; βAla-Sar10 N-terminal; non-natural residues; molecular scaffold; MOD_RES (1)..(1) Beta-Ala; MOD_RES (2)..(2) Sar10; MOD_RES (5)..(5) D-Ala; MOD_RES (8)..(8) 1Nal; MOD_RES (9)..(9) D-Ala; MOD_RES (16)..(16) tBu-Gly) [17-69-07-N241, treated with molecular scaffold reagents]”, in test [2], the equilibrium dissociation constant (Kd) was 1.2 nM.

Consider “βAla-Sar10-A-CTECWVDGWVPC (AXACTECWVDGWVPC; βAla-Sar10 N-terminal; TBMB scaffold; MOD_RES (1)..(1) Beta-Ala; MOD_RES (2)..(2) Sar10) [compound 2]”, for which the Kd in test [3] was 10 nM.

Regarding `CC(C)[C@H](NC(=O)[C@H](CC(=O)O)NC(=O)[C@H](C)N)C(=O)N[C@@H](Cc1cnc[nH]1)C(=O)N[C@H]1CSCc2ccc(cc2)C(=O)N2CN3CN(C2)C(=O)c2ccc(cc2)CSC[C@H](NC(=O)[C@H](Cc2c[nH]c4ccccc24)NC(=O)[C@H](Cc2ccccc2)NC(=O)[C@H]2CCCN2C(=O)CNC(=O)[C@H](Cc2c[nH]c4ccccc24)NC(=O)[C@@H]2CCCN2C1=O)C(=O)N1CCC[C@H]1C(=O)N[C@@H](C(C)C)C(=O)N[C@H](CC(N)=O)C(=O)N[C@H](CCCNC(=N)N)C(=O)N1CCC[C@@H]1C(=O)NCC(=O)N[C@H](C(=O)N[C@@H](C)C(=O)O)CSCc1ccc(cc1)C3=O` [I-103] (H-ADVHCPWG[dP]FWCPV[dN][dR][dP]GCA-OH; linker 5-12-19 via X7), the Kd in test [1] is more than 10000 nM.
